Measured values from the NIST ThermoML archive (doi:10.1021/je400218d).
Numbers after ± are expanded uncertainties.

Conditions: 298.15 K; 101.33 kPa; Crystal; Pycnometric method

Structure (SMILES): CC1=C(C(=O)O)N2C(=O)[C@@H](NC(=O)[C@H](N)C3=CCC=CC3)[C@H]2SC1 [Cefradin]
- molar volume: 0.000268 ± 1.6e-05 m3/mol
